Results as given in patent publication US20210284952A1, “METHODS OF APPLYING ACETATE TOXICITY AND INDUCING ACETATE UPTAKE IN MICROALGAE CULTURES” (HELIAE DEVELOPMENT LLC, priority 2016, published 2021).
Read-outs that look alike come from different tables or passages of the source.

Experiments:
[1] = tested on: Aurantiochytrium sp. HS399; details: for Cell Dry Weight of Aurantiochytrium: 2 g/L Na Acetate
Protocol: This experiment was conducted to determine the effect of different culture pH levels on the growth of Aurantiochytrium sp. HS399. Duplicate 100 ml flasks of axenic cultures of Aurantiochytrium were adjusted to initial pH levels of 4, 5, 6, 7, and 8. The culture pH was adjusted using either hydrochloric acid (HCl) or potassium hydroxide (KOH). […] Samples of the flask culture were taken initially and every other day over a five-day period (120 hours).

[2] = tested on: Chlorella sp. HS26
Protocol: Cultures of Chlorella sp. […] 100 mL volume cultures were prepared in 250 mL flasks, and cultured at a pH of 7.5, temperature of 25° C., a shaking frequency of 100 rpm, and a light intensity of 100 μM photon/m^2 s for 7 days (168 hours).

[3] = tested on: Aurantiochytrium sp. HS399; details: for Cell Dry Weight of Aurantiochytrium: sodium acetate 5 g/L
Protocol: Cultures of Aurantiochytrium sp. […] 100 mL volume cultures were prepared in 250 mL flasks, and cultured at a pH of 7.0, temperature of 27° C., a shaking frequency of 180 rpm, in the dark for 5 days (120 hours). The cultures were inoculated at the same cell density.

Structure (SMILES): CC(=O)[O-].[Na+] [Sodium Acetate, sodium acetate]
- Cell Dry Weight of Aurantiochytrium ([1]; pH 4, 0 h): 0.28 g/L
- Cell Dry Weight of Aurantiochytrium ([1]; pH 4, 24 h): 1.1 g/L
- Cell Dry Weight of Aurantiochytrium ([1]; pH 4, 48 h): 0.79 g/L
- Cell Dry Weight of Aurantiochytrium ([1]; pH 4, 72 h): 0.51 g/L
- Cell Dry Weight of Aurantiochytrium ([1]; pH 5, 0 h): 0.25 g/L
- Cell Dry Weight of Aurantiochytrium ([1]; pH 5, 24 h): 5.15 + g/L
- Cell Dry Weight of Aurantiochytrium ([1]; pH 5, 48 h): 15.2 g/L
- Cell Dry Weight of Aurantiochytrium ([1]; pH 5, 72 h): 19.4 g/L
- Cell Dry Weight of Aurantiochytrium ([1]; pH 6, 0 h): 0.18 g/L
- Cell Dry Weight of Aurantiochytrium ([1]; pH 6, 24 h): 5.1 g/L
- Cell Dry Weight of Aurantiochytrium ([1]; pH 6, 48 h): 11.55 g/L
- Cell Dry Weight of Aurantiochytrium ([1]; pH 6, 72 h): 16 g/L
- Cell Dry Weight of Aurantiochytrium ([1]; pH 7, 0 h): 0.3 g/L
- Cell Dry Weight of Aurantiochytrium ([1]; pH 7, 24 h): 12.25 g/L
- Cell Dry Weight of Aurantiochytrium ([1]; pH 7, 48 h): 10.8 g/L
- Cell Dry Weight of Aurantiochytrium ([1]; pH 7, 72 h): 15.7 g/L
- Cell Dry Weight of Aurantiochytrium ([1]; pH 8, 0 h): 0.25 g/L
- Cell Dry Weight of Aurantiochytrium ([1]; pH 8, 24 h): 9.1 g/L
- Cell Dry Weight of Aurantiochytrium ([1]; pH 8, 48 h): 8.95 g/L
- Cell Dry Weight of Aurantiochytrium ([1]; pH 8, 72 h): 12.6 g/L
- cell dry weight over time ([1]; 2 g/L sodium acetate, pH of 4): did not increase over time
- growth ([2]; 2.5 g/L sodium acetate): 0.620 g/L day
- time to reach exponential phase ([2]; 2.5 g/L sodium acetate): 48 h
- growth ([2]; 5 g/L sodium acetate): 0.065 g/L day
- Chlorella dry weights ([2]; sodium acetate 2.5 g/L, 0 h): 0.12 g/L
- Chlorella dry weights ([2]; sodium acetate 2.5 g/L, 24 h): 0.23 g/L
- Chlorella dry weights ([2]; sodium acetate 2.5 g/L, 48 h): 0.85 g/L
- Chlorella dry weights ([2]; sodium acetate 2.5 g/L, 72 h): 1.10 g/L
- Chlorella dry weights ([2]; sodium acetate 2.5 g/L, 144 h): 2.72 g/L
- Chlorella dry weights ([2]; sodium acetate 2.5 g/L, 168 h): 3.23 g/L
- Chlorella dry weights ([2]; sodium acetate 5 g/L, 0 h): 0.12 g/L
- Chlorella dry weights ([2]; sodium acetate 5 g/L, 24 h): 0.19 g/L
- Chlorella dry weights ([2]; sodium acetate 5 g/L, 48 h): 0.25 g/L
- Chlorella dry weights ([2]; sodium acetate 5 g/L, 72 h): 0.55 g/L
- Chlorella dry weights ([2]; sodium acetate 5 g/L, 144 h): 1.89 g/L
- Chlorella dry weights ([2]; sodium acetate 5 g/L, 168 h): 2.41 g/L
- Chlorella dry weights ([2]; sodium acetate 10 g/L, 0 h): 0.12 g/L
- Chlorella dry weights ([2]; sodium acetate 10 g/L, 24 h): 0.13 g/L
- Chlorella dry weights ([2]; sodium acetate 10 g/L, 48 h): 0.16 g/L
- Chlorella dry weights ([2]; sodium acetate 10 g/L, 72 h): 0.11 g/L
- Chlorella dry weights ([2]; sodium acetate 10 g/L, 144 h): 0.09 g/L
- Chlorella dry weights ([2]; sodium acetate 10 g/L, 168 h): 0.00 g/L
- Chlorella dry weights ([2]; sodium acetate 20 g/L, 0 h): 0.12 g/L
- Chlorella dry weights ([2]; sodium acetate 20 g/L, 24 h): 0.16 g/L
- Chlorella dry weights ([2]; sodium acetate 20 g/L, 48 h): 0.13 g/L
- Chlorella dry weights ([2]; sodium acetate 20 g/L, 72 h): 0.12 g/L
- Chlorella dry weights ([2]; sodium acetate 20 g/L, 144 h): 0.07 g/L
- Chlorella dry weights ([2]; sodium acetate 20 g/L, 168 h): 0.00 g/L
- Chlorella dry weights ([2]; sodium acetate 30 g/L, 0 h): 0.12 g/L
- Chlorella dry weights ([2]; sodium acetate 30 g/L, 24 h): 0.14 g/L
- Chlorella dry weights ([2]; sodium acetate 30 g/L, 48 h): 0.11 g/L
- Chlorella dry weights ([2]; sodium acetate 30 g/L, 72 h): 0.09 g/L
- Chlorella dry weights ([2]; sodium acetate 30 g/L, 144 h): 0.08 g/L
- Chlorella dry weights ([2]; sodium acetate 30 g/L, 168 h): 0.00 g/L
- Chlorella dry weights ([2]; sodium acetate 40 g/L, 0 h): 0.12 g/L
- Chlorella dry weights ([2]; sodium acetate 40 g/L, 24 h): 0.11 g/L
- Chlorella dry weights ([2]; sodium acetate 40 g/L, 48 h): 0.09 g/L
- Chlorella dry weights ([2]; sodium acetate 40 g/L, 72 h): 0.10 g/L
- Chlorella dry weights ([2]; sodium acetate 40 g/L, 144 h): 0.09 g/L
- Chlorella dry weights ([2]; sodium acetate 40 g/L, 168 h): 0.00 g/L
- acetate concentration tolerance ([2]; sodium acetate in the culture, pH 7.5): approximately 7.5 g/L
- growth ([3]; concentrations of sodium acetate below 100 g/L): grew well
- Cell Dry Weight of Aurantiochytrium ([3]; 0 h): 2.7 g/L
- Cell Dry Weight of Aurantiochytrium ([3]; 24 h): 8.01 g/L
